The source of these data is patent publication US8017612B2, “Piperazine compound and use thereof as a HCV polymerase inhibitor” (priority 2006, dated 2011).

For assay [1], the target named is T1, HCV polymerase (NS5B) type 1b (Hepatitis C virus genotype 1b, UniProt P26663).
T1 construct: a region encoding NS5B (J Virol 1991 March, 65(3), 1105-13, 544 amino acids after deletion of 47 amino acids on the C-terminal); 6xHis (C); made in house; host or cells: Escherichia coli
As to the kind of experiment: Assay of enzyme (HCV polymerase) inhibitory activity, type 1b enzyme. Format: biochemical, HCV BK strain (type 1b). An outline of the steps: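 NS5B from HCV BK strain (type 1b), C-terminal 47 aa deleted, C-terminal His6-tagged, E. coli-expressed, 0.5 μg/ml, with ~450 nt substrate RNA carrying the 3′ UTR (polyU, 3′X) at 5 μg/ml. Incubation 60 min at 25 °C with 50 μM ATP/GTP/CTP, 2 μM UTP plus [3H]UTP, pH 7.5 Tris.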

In assay [2] the target is T2, HCV polymerase (NS5B) type 1a (Hepatitis C virus genotype 1a, UniProt P26664).
T2 construct: made in house; host or cells: Escherichia coli (by the 'similar method' of the 1b enzyme)
Nature of the assay: Assay of enzyme (HCV polymerase) inhibitory activity, type 1a enzyme. It is filed as biochemical, HCV type 1a (cloned from the blood of patients). An outline of the steps: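 Patient-derived type 1a NS5B (C-terminal 47-aa deletion, His-tagged, E. coli-expressed) at 1.5 μg/ml was reacted with 5 μg/ml 3′UTR-containing substrate RNA, 50 μM ATP/GTP/CTP, 2 μM UTP plus [3H]UTP, pH 7.5, 25° C for 60 min. TCA-precipitated RNA radioactivity was counted; IC50 from ± compound.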

Where [3] appears, read: HCV polymerase inhibitory activity IC50, 1b, type 1b enzyme.
The mark [4] stands for this setting: HCV polymerase inhibitory activity IC50, 1a, type 1a enzyme.
The mark [5] stands for this setting: HCV polymerase inhibitory activity (IC50), 1b, type 1b enzyme 0.5 μg/ml, 25° C., 60 min.
The mark [6] stands for this setting: HCV polymerase inhibitory activity (IC50), 1a, type 1a enzyme 1.5 μg/ml, 25° C., 60 min.

Structures are written as SMILES.

A word on the IC50: it is the midpoint of a concentration-inhibition curve. High values mean a need for much substance, low ones inhibition by little substance. For `CNc1ncc2sc(N3CCN(S(=O)(=O)c4ccc(OC(F)(F)F)cc4)[C@@H](C(=O)NCc4ccc(OC(F)(F)F)cc4)C3)nc2n1` [Example 952, (R)-4-(5-methylamino-thiazolo[4,5-d]pyrimidin-2-yl)-1-(4-trifluoromethoxy-benzenesulfonyl)-piperazine-2-carboxylic acid 4-trifluoromethoxy-benzylamide], the IC50 in assay [1] (setting [3]) and in assay [2] (setting [4]) was under 100 nM throughout.

With `CCCc1ccc(CNC(=O)[C@H]2CN(c3cnc(C(=O)O)cn3)CCN2S(=O)(=O)c2ccc(OC(F)(F)F)cc2)cc1` [Example 374, (R)-3-(4-propyl-benzylcarbamoyl)-4-(4-trifluoromethoxy-benzenesulfonyl)-3,4,5,6-tetrahydro-2H-[1,2′]bipyrazinyl-5′-carboxylic acid], the IC50 in assay [1] (setting [5]) and in assay [2] (setting [6]) was under 100 nM throughout.

Regarding `CCC(F)(F)c1ccc(CNC(=O)[C@H]2CN(c3cnc4cncnc4n3)CCN2S(=O)(=O)c2ccc(-c3cccc(O)c3)cc2)cc1` [Example 725, (R)-1-(3′-hydroxy-biphenyl-4-sulfonyl)-4-pteridin-7-yl-piperazine-2-carboxylic acid 4-(1,1-difluoro-propyl)-benzylamide], the IC50 in assay [1] (setting [3]) and in assay [2] (setting [4]) was under 100 nM throughout.

Turning to `CCCc1ccc(CNC(=O)[C@H]2CN(c3cnccn3)CCN2S(=O)(=O)c2ccc(OC(F)(F)F)cc2)cc1` [Example 472, (R)-4-(4-trifluoromethoxy-benzenesulfonyl)-3,4,5,6-tetrahydro-2H-[1,2′]bipyrazinyl-3-carboxylic acid 4-propyl-benzylamide], the IC50 in assay [1] (setting [5]) and in assay [2] (setting [6]) was under 100 nM in each case.

`O=C(NCc1ccc(OC(F)(F)C(F)F)cc1)[C@H]1CN(c2nc3cn[nH]c(=O)c3s2)CCN1S(=O)(=O)c1ccc(OC(F)(F)F)cc1` [Example 898, (R)-4-(7-oxo-6,7-dihydro-thiazolo[4,5-d]pyridazin-2-yl)-1-(4-trifluoromethoxy-benzenesulfonyl)-piperazine-2-carboxylic acid 4-(1,1,2,2-tetrafluoro-ethoxy)-benzylamide]: the IC50 in assay [1] (setting [3]) and in assay [2] (setting [4]) was under 100 nM throughout.

Consider `CCCc1ccc(CNC(=O)[C@H]2CN(c3nc(C)c(C(O)C(=O)O)s3)CCN2S(=O)(=O)c2ccc(OC(F)(F)F)cc2)cc1` (stereo partly drawn) [Example 1092, hydroxy-{4-methyl-2-[(R)-3-(4-propyl-benzylcarbamoyl)-4-(4-trifluoromethoxy-benzenesulfonyl)-piperazin-1-yl]-thiazol-5-yl}-acetic acid], for which the IC50 in assay [1] (setting [3]) is under 100 nM; in assay [2] (setting [4]), 100 to 1000 nM.

For the molecule `CCCc1ccc(CNC(=O)[C@H]2CN(c3cnc4c(n3)NC(=O)OC4)CCN2S(=O)(=O)c2ccc(OC(F)(F)F)cc2)cc1` [Example 556, (R)-4-(2-oxo-1,4-dihydro-2H-pyrazino[2,3-d][1,3]oxazin-7-yl)-1-(4-trifluoromethoxy-benzenesulfonyl)-piperazine-2-carboxylic acid 4-propyl-benzylamide], the IC50 in assay [1] (setting [5]) and in assay [2] (setting [6]) was under 100 nM in each case.

Take `CCCc1ccc(CNC(=O)[C@H]2CN(c3nc(C)c(C(=O)O)s3)CCN2S(=O)(=O)c2ccc(OC(F)(F)F)cc2)cc1` [Example 378, 4-methyl-2-[(R)-3-(4-propyl-benzylcarbamoyl)-4-(4-trifluoromethoxy-benzenesulfonyl)-piperazin-1-yl]-thiazole-5-carboxylic acid]: the half-maximal inhibitory concentration (IC50) in assay [1] (setting [5]) and in assay [2] (setting [6]) was under 100 nM each time.

As to `CCC(F)(F)c1ccc(CNC(=O)[C@H]2CN(C(=O)Nc3ccnc(OC)c3)CCN2S(=O)(=O)c2ccc(OC(F)(F)F)cc2)cc1` [Example 490, (R)-4-(4-trifluoromethoxy-benzenesulfonyl)-piperazine-1,3-dicarboxylic acid 3-[4-(1,1-difluoro-propyl)-benzylamide] 1-[(2-methoxy-pyridin-4-yl)-amide]], the IC50 in assay [1] (setting [5]) is 100 to 1000 nM; in assay [2] (setting [6]) it was under 100 nM.

Take `COc1ccc(CNC(=O)[C@H]2CN(c3nc4nc(Cl)ncc4s3)CCN2S(=O)(=O)c2ccc(OC(F)(F)F)cc2)cc1` [Example 965, (R)-4-(5-chloro-thiazolo[4,5-d]pyrimidin-2-yl)-1-(4-trifluoromethoxy-benzenesulfonyl)-piperazine-2-carboxylic acid 4-methoxy-benzylamide]: the IC50 in assay [1] (setting [3]) and in assay [2] (setting [4]) was under 100 nM throughout.

Turning to `CC(C)c1ccc(CNC(=O)[C@H]2CN(CCc3ccncc3)CCN2S(=O)(=O)c2ccc(C(F)(F)F)cc2)cc1` [Example 304, (R)-4-(2-pyridin-4-yl-ethyl)-1-(4-trifluoromethyl-benzenesulfonyl)-piperazine-2-carboxylic acid 4-isopropyl-benzylamide], the IC50 in assay [1] (setting [5]) and in assay [2] (setting [6]) was 100 to 1000 nM each time.

As to `CN(C)c1ccc(CNC(=O)[C@H]2CN(c3cnc(C(=O)O)cn3)CCN2S(=O)(=O)c2ccc(OC(F)(F)F)cc2)cn1` [Example 407, (R)-3-[(6-dimethylamino-pyridin-3-ylmethyl)-carbamoyl]-4-(4-trifluoromethoxy-benzenesulfonyl)-3,4,5,6-tetrahydro-2H-[1,2′]bipyrazinyl-5′-carboxylic acid], the IC50 in assay [1] (setting [5]) was under 100 nM; in assay [2] (setting [6]) it was 100 to 1000 nM.

`CCC(F)(F)c1ccc(CNC(=O)[C@H]2CN(C(=O)Cn3nnc(N)n3)CCN2S(=O)(=O)c2ccc(OC(F)(F)F)cc2)cc1` [Example 1096, (R)-4-[2-(5-amino-tetrazol-2-yl)-acetyl]-1-(4-trifluoromethoxy-benzenesulfonyl)-piperazine-2-carboxylic acid 4-(1,1-difluoro-propyl)-benzylamide]: the IC50 in assay [1] (setting [3]) and in assay [2] (setting [4]) was under 100 nM in each case.

Take `CC(=O)N1CCN(S(=O)(=O)c2ccccc2Cl)C(C(=O)NCc2ccc(C(F)(F)F)cc2)C1` (stereo not drawn) [Example 21, 4-acetyl-1-(2-chloro-benzenesulfonyl)-piperazine-2-carboxylic acid 4-trifluoromethyl-benzylamide]: the IC50 in assay [1] (setting [5]) and in assay [2] (setting [6]) was over 1000 nM throughout.

As for `CCCc1ccc(CNC(=O)[C@H]2CN(c3nc4c(C(=O)OCC)nncc4s3)CCN2S(=O)(=O)c2ccc(CC)cc2)cc1` [Example 891, 2-[(R)-4-(4-ethyl-benzenesulfonyl)-3-(4-propyl-benzylcarbamoyl)-piperazin-1-yl]-thiazolo[4,5-d]pyridazine-4-carboxylic acid ethyl ester], the IC50 in assay [1] (setting [3]) and in assay [2] (setting [4]) was under 100 nM each time.

Consider `CC(C)c1ccc(S(=O)(=O)N2CCN(C(N)=S)CC2C(=O)NCc2ccc(C(F)(F)F)cc2)cc1` (stereo not drawn) [Example 111, 1-(4-isopropyl-benzenesulfonyl)-4-thiocarbamoyl-piperazine-2-carboxylic acid 4-trifluoromethyl-benzylamide], for which the IC50 in assay [1] (setting [5]) and in assay [2] (setting [6]) was over 1000 nM in each case.

Regarding `CCN(C)c1ccc(CNC(=O)[C@H]2CN(c3nc4cn[nH]c(=O)c4s3)CCN2S(=O)(=O)c2ccc(OC(F)(F)F)cc2)cc1` [Example 883, (R)-4-(7-oxo-6,7-dihydro-thiazolo[4,5-d]pyridazin-2-yl)-1-(4-trifluoromethoxy-benzenesulfonyl)-piperazine-2-carboxylic acid 4-(ethyl-methyl-amino)-benzylamide], the IC50 in assay [1] (setting [3]) and in assay [2] (setting [4]) was under 100 nM throughout.

On to `CNC(=O)c1sc(N2CCN(S(=O)(=O)c3ccc(OC(F)(F)F)cc3)[C@@H](C(=O)NCc3ccc(C(C)C)cc3)C2)nc1C` [Example 354, (R)-4-(4-methyl-5-methylcarbamoyl-thiazol-2-yl)-1-(4-trifluoromethoxy-benzenesulfonyl)-piperazine-2-carboxylic acid 4-isopropyl-benzylamide], for which the IC50 in assay [1] (setting [5]) and in assay [2] (setting [6]) was under 100 nM throughout.

On to `CCCc1ccc(CNC(=O)[C@H]2CN(c3ccc(C(=O)O)nn3)CCN2S(=O)(=O)c2ccc(OC(F)(F)F)cc2)cc1` [Example 417, 6-[(R)-3-(4-propyl-benzylcarbamoyl)-4-(4-trifluoromethoxy-benzenesulfonyl)-piperazin-1-yl]-pyridazine-3-carboxylic acid], for which the half-inhibitory concentration (IC50) in assay [1] (setting [5]) and in assay [2] (setting [6]) was under 100 nM in each case.

Consider `COc1ccc(S(=O)(=O)N2CCN(C(C)=O)C[C@@H]2C(=O)NCc2ccc(C(C)C)cc2)cc1-c1nn[nH]n1` [Example 288, (R)-4-acetyl-1-[4-methoxy-3-(2H-tetrazol-5-yl)-benzenesulfonyl]-piperazine-2-carboxylic acid 4-isopropyl-benzylamide], for which the IC50 in assay [1] (setting [5]) and in assay [2] (setting [6]) was 100 to 1000 nM throughout.

On to `CNC(=O)c1cc(=O)nc2sc(N3CCN(S(=O)(=O)c4ccc(OC(F)(F)F)cc4)[C@@H](C(=O)NCc4ccc(OC(F)(F)F)cc4)C3)nn12` [Example 990, 7-oxo-2-[(R)-4-(4-trifluoromethoxy-benzenesulfonyl)-3-(4-trifluoromethoxy-benzylcarbamoyl)-piperazin-1-yl]-7H-[1,3,4]thiadiazolo[3,2-a]pyrimidine-5-carboxylic acid methylamide], for which the IC50 in assay [1] (setting [3]) and in assay [2] (setting [4]) was under 100 nM throughout.
